The NIST ThermoML archive (doi:10.1016/j.jct.2012.02.036)

Assay: xn = mol fraction of the nth substance listed
Conditions: 101 kPa, Liquid; for mass density: Vibrating tube method

NCCCO [3-amino-1-propanol] + CC(C)O
Conditions | mass density, 293.15 K [kg/m3] | mass density, 303.15 K [kg/m3] | mass density, 313.15 K [kg/m3] | mass density, 323.15 K [kg/m3] | mass density, 333.15 K [kg/m3] | viscosity, 293.15 K [mPa·s] | viscosity, 303.15 K [mPa·s] | viscosity, 313.15 K [mPa·s] | viscosity, 323.15 K [mPa·s] | viscosity, 333.15 K [mPa·s]
x1 = 0.1006 | 807.84 | 799.47 | 790.86 | 781.97 | 772.74 | 3.076 | 2.069 | 1.334 | 0.761 | –
x1 = 0.2004 | 830.07 | 821.75 | 813.25 | 804.55 | 795.57 | 4.223 | 2.918 | 1.964 | 1.278 | 0.734
x1 = 0.3 | 851.78 | 843.5 | 835.07 | 826.48 | 817.69 | 5.489 | 3.955 | 2.745 | 1.879 | 1.203
x1 = 0.4007 | 873.12 | 864.86 | 856.49 | 848 | 839.34 | 7.957 | 5.363 | 3.704 | 2.559 | 1.75
x1 = 0.5003 | 894.23 | 885.99 | 877.67 | 869.25 | 860.69 | 11.01 | 7.213 | 4.931 | 3.402 | 2.367
x1 = 0.6 | 914.21 | 906 | 897.72 | 889.36 | 880.9 | 14.58 | 9.397 | 6.266 | 4.356 | 3.063
x1 = 0.7002 | 933.43 | 925.29 | 916.99 | 908.67 | 900.35 | 19.25 | 12.09 | 8.058 | 5.497 | 3.88
x1 = 0.8003 | 952.3 | 944.26 | 935.98 | 927.76 | 919.55 | 25.27 | 15.62 | 10.17 | 6.895 | 4.842
x1 = 0.9001 | 970.56 | 962.49 | 954.37 | 946.21 | 937.99 | 32.08 | 19.5 | 12.46 | 8.337 | 5.894
x1 = 1 | 987.65 | 979.65 | 971.61 | 963.52 | 955.38 | 40.46 | 23.98 | 15.31 | 10.22 | 6.962
